This passage reports IC50 results from paper PMC4294347, “Therapeutic potential of ERK5 targeting in triple negative breast cancer” (Oncotarget, 2014).

The test deals with T1, ERK5 (Homo sapiens, UniProt Q13164).
T1 construct: gene MAPK7; endogenous ERK5 immunoprecipitated from EGF-treated MDA-MB231 cells
Kind of test: in vitro autophosphorylation kinase assay on immunoprecipitated active ERK5, Western blot mobility-shift readout. The format is biochemical. (In general: A western blot detects proteins with antibodies after separation by electrophoresis.)

T1 sequence (Q13164 2-816): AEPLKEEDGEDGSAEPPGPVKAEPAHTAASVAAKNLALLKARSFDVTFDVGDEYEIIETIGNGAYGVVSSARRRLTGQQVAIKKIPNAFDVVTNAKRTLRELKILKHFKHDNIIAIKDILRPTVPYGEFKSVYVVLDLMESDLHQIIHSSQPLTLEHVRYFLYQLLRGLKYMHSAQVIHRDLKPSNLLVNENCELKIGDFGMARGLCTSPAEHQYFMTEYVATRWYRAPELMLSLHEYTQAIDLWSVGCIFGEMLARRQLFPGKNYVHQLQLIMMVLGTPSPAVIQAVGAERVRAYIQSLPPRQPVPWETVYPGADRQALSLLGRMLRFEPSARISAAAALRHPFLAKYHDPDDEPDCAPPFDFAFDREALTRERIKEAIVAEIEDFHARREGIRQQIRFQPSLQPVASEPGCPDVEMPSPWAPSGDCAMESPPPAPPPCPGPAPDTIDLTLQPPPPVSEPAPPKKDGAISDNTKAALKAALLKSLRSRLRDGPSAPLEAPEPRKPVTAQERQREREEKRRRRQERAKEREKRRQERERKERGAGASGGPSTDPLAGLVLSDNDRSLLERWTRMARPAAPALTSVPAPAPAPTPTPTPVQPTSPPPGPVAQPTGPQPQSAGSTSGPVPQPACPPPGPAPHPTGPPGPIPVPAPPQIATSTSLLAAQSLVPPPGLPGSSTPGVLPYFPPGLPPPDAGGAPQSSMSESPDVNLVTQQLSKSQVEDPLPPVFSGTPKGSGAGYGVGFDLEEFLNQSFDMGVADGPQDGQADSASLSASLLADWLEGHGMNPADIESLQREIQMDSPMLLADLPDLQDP

What is called IC50 is the concentration at which inhibition is half-maximal. In the case of `CN1C/C=C/CCOc2cccc(c2)-c2ccnc(n2)Nc2cccc(c2)C1` [TG02], the IC50 was found to be 100 nM.
